Test results as given in the NIST ThermoML archive (doi:10.1021/je200721d).

Test: xn = mol fraction of the nth substance listed
Conditions: Liquid, Vibrating tube method

CCCCCCCC [octane] + CCCCCC
Conditions | mass density [kg/m3]
352.91 K, 7000 kPa, x2 = 0.1654 | 656.4
352.91 K, 7000 kPa, x2 = 0.9308 | 619.06
352.91 K, 8000 kPa, x2 = 0.1654 | 657.6
352.91 K, 8000 kPa, x2 = 0.9308 | 620.53
352.91 K, 9000 kPa, x2 = 0.1654 | 658.8
352.91 K, 9000 kPa, x2 = 0.9308 | 621.96
352.91 K, 10000 kPa, x2 = 0.1654 | 659.99
352.91 K, 10000 kPa, x2 = 0.9308 | 623.39
352.91 K, 11000 kPa, x2 = 0.1654 | 661.15
352.91 K, 11000 kPa, x2 = 0.9308 | 624.78
352.91 K, 12000 kPa, x2 = 0.1654 | 662.28
352.91 K, 12000 kPa, x2 = 0.9308 | 626.15
352.91 K, 13000 kPa, x2 = 0.1654 | 663.41
352.91 K, 13000 kPa, x2 = 0.9308 | 627.49
352.91 K, 14000 kPa, x2 = 0.1654 | 664.53
352.91 K, 14000 kPa, x2 = 0.9308 | 628.8
352.91 K, 15000 kPa, x2 = 0.1654 | 665.63
352.91 K, 15000 kPa, x2 = 0.9308 | 630.08
352.91 K, 16000 kPa, x2 = 0.1654 | 666.68
352.91 K, 16000 kPa, x2 = 0.9308 | 631.35
352.91 K, 17000 kPa, x2 = 0.1654 | 667.73
352.91 K, 17000 kPa, x2 = 0.9308 | 632.57
352.91 K, 18000 kPa, x2 = 0.1654 | 668.76
352.91 K, 18000 kPa, x2 = 0.9308 | 633.78
352.91 K, 19000 kPa, x2 = 0.1654 | 669.76
352.91 K, 19000 kPa, x2 = 0.9308 | 634.96
352.91 K, 20000 kPa, x2 = 0.1654 | 670.78
352.91 K, 20000 kPa, x2 = 0.9308 | 636.11
352.91 K, 21000 kPa, x2 = 0.1654 | 671.71
352.91 K, 21000 kPa, x2 = 0.9308 | 637.22
352.91 K, 22000 kPa, x2 = 0.1654 | 672.65
352.91 K, 22000 kPa, x2 = 0.9308 | 638.32
352.91 K, 23000 kPa, x2 = 0.1654 | 673.59
352.91 K, 23000 kPa, x2 = 0.9308 | 639.39
352.91 K, 24000 kPa, x2 = 0.1654 | 674.5
352.91 K, 24000 kPa, x2 = 0.9308 | 640.43
352.91 K, 25000 kPa, x2 = 0.1654 | 675.39
352.91 K, 25000 kPa, x2 = 0.9308 | 641.44
352.92 K, 1000 kPa, x2 = 0.7995 | 618.46
352.92 K, 2000 kPa, x2 = 0.7995 | 619.98
352.92 K, 3000 kPa, x2 = 0.7995 | 621.51
352.92 K, 4000 kPa, x2 = 0.7995 | 623
352.92 K, 5000 kPa, x2 = 0.7995 | 624.48
352.92 K, 6000 kPa, x2 = 0.7995 | 625.93
352.92 K, 7000 kPa, x2 = 0.7995 | 627.37
352.92 K, 8000 kPa, x2 = 0.7995 | 628.79
352.92 K, 9000 kPa, x2 = 0.7995 | 630.18
352.92 K, 10000 kPa, x2 = 0.7995 | 631.54
352.92 K, 11000 kPa, x2 = 0.7995 | 632.86
352.92 K, 12000 kPa, x2 = 0.7995 | 634.17
352.92 K, 13000 kPa, x2 = 0.7995 | 635.46
352.92 K, 14000 kPa, x2 = 0.7995 | 636.72
352.92 K, 15000 kPa, x2 = 0.7995 | 637.96
352.92 K, 16000 kPa, x2 = 0.7995 | 639.16
352.92 K, 17000 kPa, x2 = 0.7995 | 640.35
352.92 K, 18000 kPa, x2 = 0.7995 | 641.51
352.92 K, 19000 kPa, x2 = 0.7995 | 642.64
352.92 K, 20000 kPa, x2 = 0.7995 | 643.75
352.92 K, 21000 kPa, x2 = 0.7995 | 644.82
352.92 K, 22000 kPa, x2 = 0.7995 | 645.88
352.92 K, 23000 kPa, x2 = 0.7995 | 646.92
352.92 K, 24000 kPa, x2 = 0.7995 | 647.94
352.92 K, 25000 kPa, x2 = 0.7995 | 648.91
362.76 K, 1000 kPa, x2 = 0.5749 | 622.07
362.76 K, 2000 kPa, x2 = 0.5749 | 623.63
362.76 K, 3000 kPa, x2 = 0.5749 | 625.2
362.76 K, 4000 kPa, x2 = 0.5749 | 626.68
362.76 K, 5000 kPa, x2 = 0.5749 | 628.17
362.76 K, 6000 kPa, x2 = 0.5749 | 629.67
362.76 K, 7000 kPa, x2 = 0.5749 | 631.09
362.76 K, 8000 kPa, x2 = 0.5749 | 632.53
362.76 K, 9000 kPa, x2 = 0.5749 | 633.92
362.76 K, 10000 kPa, x2 = 0.5749 | 635.27
362.76 K, 11000 kPa, x2 = 0.5749 | 636.64
362.76 K, 12000 kPa, x2 = 0.5749 | 637.96
362.76 K, 13000 kPa, x2 = 0.5749 | 639.28
362.76 K, 14000 kPa, x2 = 0.5749 | 640.55
362.76 K, 15000 kPa, x2 = 0.5749 | 641.82
362.76 K, 16000 kPa, x2 = 0.5749 | 643.03
362.76 K, 17000 kPa, x2 = 0.5749 | 644.23
362.76 K, 18000 kPa, x2 = 0.5749 | 645.42
362.76 K, 19000 kPa, x2 = 0.5749 | 646.56
362.76 K, 20000 kPa, x2 = 0.5749 | 647.68
362.76 K, 21000 kPa, x2 = 0.5749 | 648.78
362.76 K, 22000 kPa, x2 = 0.5749 | 649.86
362.76 K, 23000 kPa, x2 = 0.5749 | 650.91
362.76 K, 24000 kPa, x2 = 0.5749 | 651.95
362.76 K, 25000 kPa, x2 = 0.5749 | 652.96
362.88 K, 1000 kPa, x2 = 0.1654 | 640.2
362.88 K, 1000 kPa, x2 = 0.2199 | 637.97
362.88 K, 2000 kPa, x2 = 0.1654 | 641.61
362.88 K, 2000 kPa, x2 = 0.2199 | 639.42
362.88 K, 3000 kPa, x2 = 0.1654 | 642.98
362.88 K, 3000 kPa, x2 = 0.2199 | 640.79
